Patent publication US20240156817A1, “TREATMENTS FOR PAIN” (Sevenless Therapeutics Limited, priority 2021, published 2024)

Key:
[1] = tested on: pain models (knee osteoarthritis pain, arthritic joint, auto-immune arthritis); settings: rats as printed; cited papers say mouse; cited from earlier work
[2] = tested on: Nerve Growth Factor (NGF) stimulated phospho-ERK1/2 activation in PC-12 cells; experiment: Inhibition of NGF stimulated pERK1/2 activation in the PC-12 cell line (HTRF), alone and combined with anti-NGF; type: cell-based, rat
Procedure: Homogeneous Time-Resolved Fluorescence (HTRF) assay:
Reagents from the HTRF commercial kit (Cisbio) were prepared according to the manufacturer's instructions.
PC-12 cells were isolated from routine cellular culture and plated at an appropriate cell density in 384-well plates (typically 25,000 cells per well) for 24 hours under serum-starved conditions. […] Following the 30-minute compound pre-incubation, PC-12 cells were treated with NGF (titrations of NGF from 250 ng/mL to 10 ng/mL were tested), and subsequently incubated for a 5-minute period (37° C./5% CO2). […] A 2-hour incubation at room temperature was performed prior to fluorescence signal determination using a microplate reader (PHERAstar FSX, BMG Labtech).
Percentage inhibition values were calculated per compound concentration by normalising the sample data to the high and low controls used within each plate (+/−25 ng/mLNGF respectively). […]
PC-12 cells were isolated from routine cellular culture and plated at an appropriate cell density (typically 25,000 cells per well) in 384-well plates for 24 hours under serum-starved conditions. […] A 2-hour incubation at room temperature was performed prior to fluorescence signal being measured in a microplate reader (PHERAstar FSX, BMG Labtech). […]

[3] = tested on: CFA-(Complete Freunds Adjuvant) induced hypersensitivity; experiment: CFA-induced hypersensitivity using weight-bearing in the C57BI6 mouse; type: in vivo
Procedure: On 3 days before CFA dose: habituation to WB apparatus, baseline readings are taken once. 24 h before dosing: intraplantar injection of 20 μl of CFA 1.5 mg/ml to the left hind paw. 1 h before dosing: post-CFA readings are taken for WB. […] Naive animals distribute their body weight equally between the two hind paws. However, when a painful insult is given to one hindpaw (i.e., sciatic nerve constriction or CFA intraplantar injection), the weight is re-distributed so that less weight is put on the affected paw (with a decrease in weight bearing on the injured paw). Animals were placed in the incapacitance tester (Linton Instruments, UK) with the hind paws on separate sensors. The average forces exerted by the left and the right hindlimb were recorded over 2 s. Weight-bearing readings were taken for both left and right hind paws. The ratio ipsilateral/contralateral was calculated and expressed in % (mean±s.e.m.). Statistics: Two-Way RM Mixed model (treatment×repeated factor: time) (InVivoStat v3.7.0.0)

In the case of “Tanezumab: an anti-NGF antibody, pain drug candidate”, the “dose at which efficacy is shown (scientific literature)” value [1] is given as 10 mg/kg, the efficacy ([2]; Tanezumab at a concentration of 50 nM) is given as 90% and the efficacy ([2]; tanezumab at a concentration of 200 nM) is given as 100%. For the same substance, the “weight-bearing, ratio ipsilateral/contralateral (mean)” value ([3]; Tanezumab 3 mg/kg, DRUG TREATED 0.5 h (approx)) was 82.54%, the “weight-bearing, ratio ipsilateral/contralateral (mean)” value ([3]; Tanezumab 3 mg/kg, DRUG TREATED 8.5 h (approx)) was 94.11% and the “weight-bearing, ratio ipsilateral/contralateral (mean)” value ([3]; Tanezumab 3 mg/kg, DRUG TREATED 24.5 h (approx)) was 89.88%. The “weight-bearing, ratio ipsilateral/contralateral (mean)” value ([3]; Tanezumab 3 mg/kg, DRUG TREATED 32.5 h (approx)) was 84.25% and the “weight-bearing, ratio ipsilateral/contralateral (mean)” value ([3]; combination study, Tanezumab 3 mg/kg i.p. alone, DRUG TREATED (d2 PM)) was 99.84%.
